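Where inhibition never reached the appropriate level, the endpoint shown equals the highest concentration tested. Otherwise, values were interpolated linearly from a five-concentration, 48-hour dose response in 96-well plates. GI50 is the concentration that inhibits growth by half.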 Calls of active or inactive are those of the source. Cut-off read from the data, not from the text of the source: active = GI50 up to about 1.1 µM and inactive = higher.
Tests used:
Assay in all cases: NCI anticancer screen, dose series, 48 h
[1] = test system: 786-0
[2] = test system: A549
[3] = test system: ACHN
[4] = test system: CAKI-1
[5] = test system: CCRF-CEM
[6] = test system: COLO 205
[7] = test system: DU-145
[8] = test system: HCC 2998
[9] = test system: HCT-116
[10] = test system: HCT-15
[11] = test system: HL-60
[12] = test system: HOP-62
[13] = test system: HOP-92
[14] = test system: HT-29
[15] = test system: Hs-578T
[16] = test system: IGROV-1
[17] = test system: K562
[18] = test system: KM12
[19] = test system: LOX IMVI
[20] = test system: M14
[21] = test system: MCF7
[22] = test system: MDA-MB-231
[23] = test system: MDA-MB-435
[24] = test system: MDA-N
[25] = test system: MOLT-4
[26] = test system: Malme-3M
[27] = test system: NCI-H226
[28] = test system: NCI-H23
[29] = test system: NCI-H460
[30] = test system: NCI-H522
[31] = test system: NCI/ADR-RES
[32] = test system: OVCAR-3
[33] = test system: OVCAR-4
[34] = test system: OVCAR-5
[35] = test system: OVCAR-8
[36] = test system: PC-3
[37] = test system: RPMI-8226
[38] = test system: RXF 393
[39] = test system: SF-268
[40] = test system: SF-295
[41] = test system: SF-539
[42] = test system: SK-MEL-28
[43] = test system: SK-MEL-2
[44] = test system: SK-MEL-5
[45] = test system: SK-OV-3
[46] = test system: SN12C
[47] = test system: SNB-19
[48] = test system: SNB-75
[49] = test system: SR
[50] = test system: SW-620
[51] = test system: T47D
[52] = test system: TK-10
[53] = test system: U-251
[54] = test system: UACC-257
[55] = test system: UACC-62
[56] = test system: UO-31

In the case of `Cc1cn(C2C=CC(COP(=O)(OCC3=CC(=O)c4ccccc4C3=O)N(C)CCCCCl)O2)c(=O)[nH]c1=O` (stereo unspecified), the GI50 [1] is reported as 12.7 µM (inactive), the GI50 [2] is reported as 1.6 µM (inactive) and the GI50 [3] is reported as 13.6 µM (inactive). The GI50 [4] was 13.2 µM (inactive), the GI50 [5] was 3.12 µM (inactive) and the GI50 [6] was 3.23 µM (inactive). The GI50 [7] was 1.57 µM (inactive), the GI50 [8] was 1.24 µM (inactive) and the GI50 [9] was 14 µM (inactive). The GI50 [10] was 8.51 µM, the GI50 [11] was 1.42 µM (inactive) and the GI50 [12] was 11.7 µM (inactive). For the same molecule, the GI50 [13] was 0.074 µM (active), the GI50 [14] was 12.7 µM (inactive) and the GI50 [15] was 3.9 µM (inactive). The GI50 [16] was 10.6 µM (inactive), the GI50 [17] was 5.81 µM (inactive) and the GI50 [18] was 10.6 µM (inactive). The GI50 [19] was 2.38 µM (inactive), the GI50 [20] was 1.18 µM (inactive) and the GI50 [21] was 6.98 µM (inactive). The GI50 [22] was 12.6 µM (inactive), the GI50 [23] was 1.94 µM (inactive) and the GI50 [24] was 2.21 µM (inactive). For the same molecule, the GI50 [25] was 0.15 µM (active), the GI50 [26] was 0.363 µM (active) and the GI50 [27] was 10.3 µM (inactive). For the same molecule, the GI50 [28] was 2.39 µM (inactive), the GI50 [29] was 2.49 µM (inactive) and the GI50 [30] was 14.7 µM (inactive). For the same molecule, the GI50 [31] was 16.4 µM (inactive), the GI50 [32] was 3.5 µM (inactive) and the GI50 [33] was 11.1 µM (inactive). The GI50 [34] was 12.1 µM (inactive), the GI50 [35] was 13.7 µM (inactive) and the GI50 [36] was 12.1 µM (inactive). The GI50 [37] was 5.05 µM (inactive), the GI50 [38] was 2.5 µM (inactive) and the GI50 [39] was 12.1 µM (inactive). For the same molecule, the GI50 [40] was 2.59 µM (inactive), the GI50 [41] was 13.1 µM (inactive) and the GI50 [42] was 5.15 µM (inactive). For the same molecule, the GI50 [43] was 13.2 µM (inactive), the GI50 [44] was 0.813 µM (active) and the GI50 [45] was 11 µM (inactive). The GI50 [46] was 11.6 µM (inactive), the GI50 [47] was 12 µM (inactive) and the GI50 [48] was 1.55 µM (inactive). The GI50 [49] was 0.0473 µM (active), the GI50 [50] was 5.13 µM (inactive) and the GI50 [51] was 2.09 µM (inactive). For the same molecule, the GI50 [52] was 20.7 µM (inactive), the GI50 [53] was 5.38 µM (inactive) and the GI50 [54] was 3.25 µM (inactive). The GI50 [55] was 3.75 µM (inactive) and the GI50 [56] was 12.8 µM (inactive).

From ChEMBL document CHEMBL1201862, “PubChem BioAssay data set” (2004)
